For experiment [1], the system named is type III collagen, tenascin and fibronectin. As to the kind of experiment: Western blot of TGF-β1 activated rabbit corneal keratocytes: type III collagen, tenascin, fibronectin. Format: cell-based. As to conditions: TGF-β1 (10 ng/ml)+1% FBS, two days, compared to controls with no treatment. As to the method:
(§1) FIGS. 19A and 19B. Western blot analyses: Rabbit corneal keratocytes were isolated and cultured in serum-free DMEM/F12 into 60 mm tissue culture dishes. After 24 hrs of incubation, the media were replaced with DMEM/F12 medium containing TGF-β1(10 ng/ml)+1% FBS without (control) or with EP or EP-derivatives for two days. The cells were extracted in RIPA buffer and the extracts containing 5 μg of total proteins were loaded per lane for Western blot analysis.
(§2) Keratocytes or fibroblasts grown under different culture conditions were extracted in RIPA buffer (9.1 mM dibasic sodium phosphate, 1.7 mM monobasic sodium phosphate, 150 mM NaCl, pH, 7.4, 1% Nonidet P-40, 0.5% sodium deoxycholate, 0.1% SDS, 0.03 TIU/mL aprotinin, 1 mM sodium orthovanadate, and 100 μg/mL phenylmethylsulfonyl fluoride (PMSF)). Aliquots of cell extracts containing 50 or 100 μg protein were subjected to SDS-PAGE. Protein bands on SDS-PAGE were electrophoretically transferred to IMMOBILON-P™ membrane (Millipore Corp., Bedford, Mass.), stained with 0.1% Coomassie blue 250 in 40% methanol/1% acetic acid for 1 minute, destained one to three times with 50% methanol/1% acetic acid, scanned for densitometric comparisons of relative concentrations of proteins per lane, destained with methanol, and subjected to Western blot analysis. Immunoreactive bands were detected using chemiluminescence Western chemiluminescence reagents.
(§3) As described in Example 1, corneal stromal cells were isolated from rabbit corneas and cultured using the same procedures. The keratocytes in serum free media were treated with b-FGF (40 ng/ml)+HS (5 μg/ml) with or without 15 mM EP or 1, 2.5 or 5 mM following EP derivatives: 2-oxopropionic acid 3-methoxyphenyl ester, 2-oxopropionic acid 2-ethoxyethyl ester, 2-oxopropionic acid 2-chloroethyl ester, 2-oxopropionic acid isopropyl ester, 2-oxopropionic acid butyl ester, 2-oxopropionic acid p-tolyl ester, 2-oxopropionic acid tert-butyl ester. […] The relative levels of the expression of specific proteins were analyzed by Western blot analyses of the cell lysates as described supra.
On the technique in general: In western blotting, separated proteins are transferred to a membrane and probed.

Experiment [2] has as its system alpha-smooth muscle actin. The experiment in a line: Western blot of TGF-β1 activated rabbit corneal keratocytes: alpha-smooth muscle actin. It counts as cell-based. Conditions: TGF-β1 (10 ng/ml)+1% FBS, two days, compared to controls with no treatment. As for the experimental part:
as §1, §2, §3

The structures appear in SMILES notation. “Also recorded” adds a separate entry of the source.

As for `CC(=O)C(=O)OCCCl` [2-oxopropionic acid 2-chloroethyl ester], in experiment [1], the “levels of type III collagen, tenascin and fibronectin (Western blot)” value was “reduced levels”. In addition, the “alpha-smooth muscle actin levels (Western blot)” value in experiment [2] is recorded as “reduced expression; also recorded: reduced levels”.

With `CC(=O)C(=O)Oc1ccc(C)cc1` [2-oxopropionic acid p-tolyl ester], the “levels of type III collagen, tenascin and fibronectin (Western blot)” value in experiment [1] is reported as “reduced levels”. In addition, in experiment [2], the “alpha-smooth muscle actin levels (Western blot)” value is “reduced expression; also recorded: reduced levels”.
